# Columns and labels:
# Assay in all cases: cells
# UACC-257 = type: functional, cell-based, Homo sapiens; conditions: Homo sapiens, UACC-257
# Description: SANGER: Inhibition of human UACC-257 cell growth in a cell viability assay.
# GI-1 = type: functional, cell-based, Homo sapiens; conditions: Homo sapiens, GI-1;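 further: growth inhibition of human GI-1 cells, measured with a cell viability readout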
# Description: SANGER: Inhibition of human GI-1 cell growth in a cell viability assay.
# SK-PN-DW = type: functional, cell-based, Homo sapiens; conditions: Homo sapiens, SK-PN-DW;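 further: growth inhibition measured with a viability assay on these cells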
# Description: SANGER: Inhibition of human SK-PN-DW cell growth in a cell viability assay.
# SCH = type: functional, cell-based, Homo sapiens; conditions: Homo sapiens, SCH;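 further: growth inhibition of human SCH cells, read out in a cell viability assay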
# Description: SANGER: Inhibition of human SCH cell growth in a cell viability assay.
# LB1047-RCC = type: functional, cell-based, Homo sapiens; conditions: Homo sapiens, LB1047-RCC;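 further: inhibition of cell growth, determined with a cell viability assay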
# Description: SANGER: Inhibition of human LB1047-RCC cell growth in a cell viability assay.
# HDLM-2 = type: functional, cell-based, Homo sapiens; conditions: Homo sapiens, HDLM-2;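 further: cell viability assay measuring suppression of HDLM-2 proliferation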
# Description: SANGER: Inhibition of human HDLM-2 cell growth in a cell viability assay.
# SW756 = type: functional, cell-based; conditions: Homo sapiens;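 further: growth inhibition of human SW756 cells, read out with a cell viability assay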
# Description: SANGER: Inhibition of human SW756 cell growth in a cell viability assay.
# ES4 = type: functional, cell-based, Homo sapiens; conditions: Homo sapiens, ES4;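 further: growth inhibition of human ES4 cells, read out by a cell viability assay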
# Description: SANGER: Inhibition of human ES4 cell growth in a cell viability assay.
# ACN = type: functional, cell-based, Homo sapiens; conditions: Homo sapiens, ACN;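 further: growth inhibition of the human ACN cell line, read out via cell viability testing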
# Description: SANGER: Inhibition of human ACN cell growth in a cell viability assay.
# NCI-H226 = type: functional, cell-based, Homo sapiens; conditions: Homo sapiens, NCI-H226;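 further: cell viability read-out used to gauge growth inhibition of the cells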
# Description: SANGER: Inhibition of human NCI-H226 cell growth in a cell viability assay.
# LU-134-A = type: functional, cell-based, Homo sapiens; conditions: Homo sapiens, LU-134-A
# Description: SANGER: Inhibition of human LU-134-A cell growth in a cell viability assay.
# EW-16 = type: functional, cell-based, Homo sapiens; conditions: Homo sapiens, EW-16;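 further: growth inhibition of human EW-16 cells, read out as cell viability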
# Description: SANGER: Inhibition of human EW-16 cell growth in a cell viability assay.
# SW 954 = type: functional, cell-based, Homo sapiens; conditions: Homo sapiens, SW 954;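 further: growth inhibition of SW954 human cancer cells, read out as cell viability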
# Description: SANGER: Inhibition of human SW954 cell growth in a cell viability assay.
# LAN-6 = type: functional, cell-based, Homo sapiens; conditions: Homo sapiens, LAN-6;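 further: growth inhibition of LAN-6 cells, determined with a cell viability assay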
# Description: SANGER: Inhibition of human LAN-6 cell growth in a cell viability assay.
# P30-OHK = type: functional, cell-based, Homo sapiens; conditions: Homo sapiens, P30-OHK;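 further: growth inhibition of the P30-OHK cell line, read out with a cell viability assay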
# Description: SANGER: Inhibition of human P30-OHK cell growth in a cell viability assay.
# HCC2157 = type: functional, cell-based, Homo sapiens; conditions: Homo sapiens, HCC2157;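 further: growth inhibition of the cancer cell line, read out as cell viability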
# Description: SANGER: Inhibition of human HCC2157 cell growth in a cell viability assay.
# LS-411N = type: functional, cell-based, Homo sapiens; conditions: Homo sapiens, LS-411N
# DOHH-2 = type: functional, cell-based, Homo sapiens; conditions: Homo sapiens, DOHH-2;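 further: growth inhibition of human DOHH-2 cells, read out with a cell viability assay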
# Description: SANGER: Inhibition of human DOHH-2 cell growth in a cell viability assay.
# HL-60 = type: functional, cell-based, Homo sapiens; conditions: Homo sapiens, HL-60;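 further: growth inhibition of human HL-60 cells, read out with a cell viability assay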
# Description: SANGER: Inhibition of human HL-60 cell growth in a cell viability assay.
# TE-12 = type: functional, cell-based, Homo sapiens; conditions: Homo sapiens, TE-12;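 further: growth inhibition of TE-12 cells, read out by a cell viability assay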
# Description: SANGER: Inhibition of human TE-12 cell growth in a cell viability assay.
# C32 = type: functional, cell-based; conditions: Homo sapiens;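 further: cell viability assay, with IC50 reflecting inhibition of C32 cell growth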
# Description: SANGER: Inhibition of human C32 cell growth in a cell viability assay.
# NKM-1 = type: functional, cell-based, Homo sapiens; conditions: Homo sapiens, NKM-1;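 further: growth inhibition of NKM-1 cells, read out with a cell viability assay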
# Description: SANGER: Inhibition of human NKM-1 cell growth in a cell viability assay.
# LB771-HNC = type: functional, cell-based; conditions: Homo sapiens;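 further: growth inhibition of LB771-HNC human cells, read out with a cell viability assay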
# Description: SANGER: Inhibition of human LB771-HNC cell growth in a cell viability assay.
# TE-11 = type: functional, cell-based; conditions: Homo sapiens;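 further: growth inhibition of human TE-11 cells, read out by a cell viability assay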
# Description: SANGER: Inhibition of human TE-11 cell growth in a cell viability assay.
# A498 = type: functional, cell-based, Homo sapiens; conditions: Homo sapiens, A498;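 further: growth inhibition of human A498 cells, read out with a cell viability assay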
# Description: SANGER: Inhibition of human A498 cell growth in a cell viability assay.
# A4-Fuk = type: functional, cell-based, Homo sapiens; conditions: Homo sapiens, A4-Fuk;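 further: growth inhibition of A4-Fuk cells, read out by a cell viability assay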
# Description: SANGER: Inhibition of human A4-Fuk cell growth in a cell viability assay.
# LC-2-ad = type: functional, cell-based, Homo sapiens; conditions: Homo sapiens, LC-2-ad;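 further: growth inhibition of human LC-2-ad cells, read out with a cell viability assay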
# Description: SANGER: Inhibition of human LC-2-ad cell growth in a cell viability assay.
# J-RT3-T3-5 = type: functional, cell-based, Homo sapiens; conditions: Homo sapiens, J-RT3-T3-5;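 further: cell viability assay measuring growth inhibition of human J-RT3-T3-5 cells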
# Description: SANGER: Inhibition of human J-RT3-T3-5 cell growth in a cell viability assay.
# NB10 = type: functional, cell-based, Homo sapiens; conditions: Homo sapiens, NB10;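 further: growth inhibition of NB10 cells, read out by a cell viability assay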
# Description: SANGER: Inhibition of human NB10 cell growth in a cell viability assay.
# LAMA-84 = type: functional, cell-based, Homo sapiens; conditions: Homo sapiens, LAMA-84;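 further: growth inhibition of LAMA-84 cells, read out with a cell viability assay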
# Description: SANGER: Inhibition of human LAMA-84 cell growth in a cell viability assay.
# MC116 = type: functional, cell-based, Homo sapiens; conditions: Homo sapiens, MC116;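 further: growth inhibition of MC116 cells, read out with a cell viability assay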
# Description: SANGER: Inhibition of human MC116 cell growth in a cell viability assay.
# TE-1 = type: functional, cell-based, Homo sapiens; conditions: Homo sapiens, TE-1
# Description: SANGER: Inhibition of human TE-1 cell growth in a cell viability assay.
# LNCaP-Clone-FGC = type: functional, cell-based, Homo sapiens; conditions: Homo sapiens, LNCaP-Clone-FGC
# Description: SANGER: Inhibition of human LNCaP-Clone-FGC cell growth in a cell viability assay.
# RXF 393 = type: functional, cell-based, Homo sapiens; conditions: Homo sapiens, RXF 393;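 further: growth inhibition of human RXF 393 cells, read out with a cell viability assay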
# Description: SANGER: Inhibition of human RXF393 cell growth in a cell viability assay.
# NCI-H1155 = type: functional, cell-based, Homo sapiens; conditions: Homo sapiens, NCI-H1155;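 further: cell growth inhibition measured by a viability assay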
# Description: SANGER: Inhibition of human NCI-H1155 cell growth in a cell viability assay.
# EKVX = type: functional, cell-based, Homo sapiens; conditions: Homo sapiens, EKVX;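 further: growth inhibition of human EKVX cells, read out with a cell viability assay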
# Description: SANGER: Inhibition of human EKVX cell growth in a cell viability assay.
# SK-UT-1 = type: functional, cell-based, Homo sapiens; conditions: Homo sapiens, SK-UT-1;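 further: growth inhibition of SK-UT-1 cells, measured by a cell viability assay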
# Description: SANGER: Inhibition of human SK-UT-1 cell growth in a cell viability assay.
# DBTRG-05MG = type: functional, cell-based; conditions: Homo sapiens;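 further: cell viability assay measuring growth inhibition of human DBTRG-05MG cells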
# Description: SANGER: Inhibition of human DBTRG-05MG cell growth in a cell viability assay.
# CAS-1 = type: functional, cell-based, Homo sapiens; conditions: Homo sapiens, CAS-1;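 further: growth inhibition of CAS-1 cells, measured with a cell viability assay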
# Description: SANGER: Inhibition of human CAS-1 cell growth in a cell viability assay.
# HT = type: functional, cell-based, Homo sapiens; conditions: Homo sapiens, HT
# Description: SANGER: Inhibition of human HT cell growth in a cell viability assay.
# KURAMOCHI = type: functional, cell-based, Homo sapiens; conditions: Homo sapiens, KURAMOCHI;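 further: growth inhibition of KURAMOCHI cells, read out with a cell viability assay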
# Description: SANGER: Inhibition of human KURAMOCHI cell growth in a cell viability assay.
# C-33-A = type: functional, cell-based; conditions: Homo sapiens;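 further: cell viability assay measuring growth inhibition of C-33-A cells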
# Description: SANGER: Inhibition of human C-33-A cell growth in a cell viability assay.
# DU-4475 = type: functional, cell-based, Homo sapiens; conditions: Homo sapiens, DU-4475
# Description: SANGER: Inhibition of human DU-4475 cell growth in a cell viability assay.
# ES3 = type: functional, cell-based, Homo sapiens; conditions: Homo sapiens, ES3;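 further: growth inhibition of ES3 cells, read out with a cell viability assay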
# Description: SANGER: Inhibition of human ES3 cell growth in a cell viability assay.
# A253 cell line = type: functional, cell-based, Homo sapiens; conditions: Homo sapiens, A253;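 further: growth inhibition of A253 cells, read out with a cell viability assay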
# Description: SANGER: Inhibition of human A253 cell growth in a cell viability assay.
# TGBC24TKB = type: functional, cell-based; conditions: Homo sapiens;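 further: growth inhibition of human TGBC24TKB cells, read out with a cell viability assay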
# Description: SANGER: Inhibition of human TGBC24TKB cell growth in a cell viability assay.
# KARPAS-45 = type: functional, cell-based, Homo sapiens; conditions: Homo sapiens, KARPAS-45;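 further: inhibition of cell line growth, read out through a viability assay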
# Description: SANGER: Inhibition of human KARPAS-45 cell growth in a cell viability assay.
# CTV-1 = type: functional, cell-based, Homo sapiens; conditions: Homo sapiens, CTV-1;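 further: growth inhibition of the cell line, read out with a cell viability assay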
# Description: SANGER: Inhibition of human CTV-1 cell growth in a cell viability assay.
# KU812 cell line = type: functional, cell-based, Homo sapiens; conditions: Homo sapiens, KU812;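 further: growth inhibition of KU812 cells, read out with a cell viability assay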
# Description: SANGER: Inhibition of human KU812 cell growth in a cell viability assay.
# KY821 = type: functional, cell-based, Homo sapiens; conditions: Homo sapiens, KY821;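 further: growth inhibition of human KY821 cells, read out by a cell viability assay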
# Description: SANGER: Inhibition of human KY821 cell growth in a cell viability assay.
# JVM-2 = type: functional, cell-based, Homo sapiens; conditions: Homo sapiens, JVM-2;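 further: growth inhibition of JVM-2 cells determined by a cell viability assay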
# Description: SANGER: Inhibition of human JVM-2 cell growth in a cell viability assay.
structure (smiles),measurement,setting,value
O=C(NCCCNc1nc(Nc2cccc(NC(=O)N3CCCC3)c2)ncc1I)c1cccs1 [BX-795],IC50,UACC-257,> 5 µM
same,IC50,GI-1,> 5 µM
same,IC50,SK-PN-DW,> 5 µM
same,IC50,SCH,> 5 µM
same,IC50,LB1047-RCC,1290 nM
same,IC50,HDLM-2,> 5 µM
same,IC50,SW756,> 5 µM
same,IC50,ES4,> 5 µM
same,IC50,ACN,> 5 µM
same,IC50,NCI-H226,> 5 µM
same,IC50,LU-134-A,3.43 µM
same,IC50,EW-16,4.31 µM
same,IC50,SW 954,3.44 µM
same,IC50,LAN-6,> 5 µM
same,IC50,P30-OHK,496 nM
same,IC50,HCC2157,> 5 µM
same,IC50,LS-411N,> 5 µM
same,IC50,DOHH-2,1460 nM
same,IC50,HL-60,2540 nM
same,IC50,TE-12,> 5 µM
same,IC50,C32,1760 nM
same,IC50,NKM-1,362 nM
same,IC50,LB771-HNC,> 5 µM
same,IC50,TE-11,1650 nM
same,IC50,A498,4.56 µM
same,IC50,A4-Fuk,> 5000 nM
same,IC50,LC-2-ad,1470 nM
same,IC50,J-RT3-T3-5,> 5000 nM
same,IC50,NB10,4.23 µM
same,IC50,LAMA-84,1770 nM
same,IC50,MC116,> 5 µM
same,IC50,TE-1,> 5 µM
same,IC50,LNCaP-Clone-FGC,> 5000 nM
same,IC50,RXF 393,3.41 µM
same,IC50,NCI-H1155,2690 nM
same,IC50,EKVX,> 5 µM
same,IC50,SK-UT-1,2290 nM
same,IC50,DBTRG-05MG,> 5 µM
same,IC50,CAS-1,3.02 µM
same,IC50,HT,> 5000 nM
same,IC50,KURAMOCHI,> 5 µM
same,IC50,C-33-A,> 5 µM
same,IC50,DU-4475,1290 nM
same,IC50,ES3,2620 nM
same,IC50,A253 cell line,4.19 µM
same,IC50,TGBC24TKB,> 5 µM
NC1(c2ccc(-c3nc4ccn5c(=O)[nH]nc5c4cc3-c3ccccc3)cc2)CCC1 [MK-2206],IC50,KARPAS-45,373 nM
same,IC50,UACC-257,> 4 µM
same,IC50,GI-1,> 4 µM
same,IC50,SK-PN-DW,> 4 µM
same,IC50,SCH,> 4 µM
same,IC50,LB1047-RCC,2240 nM
same,IC50,HDLM-2,> 4 µM
same,IC50,SW756,> 4 µM
same,IC50,ES4,> 4 µM
same,IC50,CTV-1,> 4 µM
same,IC50,ACN,> 4 µM
same,IC50,NCI-H226,> 4 µM
same,IC50,LU-134-A,3.88 µM
same,IC50,EW-16,3.22 µM
same,IC50,SW 954,> 4 µM
same,IC50,KU812 cell line,> 4 µM
same,IC50,LAN-6,> 4 µM
same,IC50,P30-OHK,3810 nM
same,IC50,HCC2157,3.38 µM
same,IC50,LS-411N,> 4 µM
same,IC50,DOHH-2,1280 nM
same,IC50,HL-60,> 4000 nM
same,IC50,TE-12,> 4 µM
same,IC50,C32,> 4000 nM
same,IC50,NKM-1,863 nM
same,IC50,LB771-HNC,> 4 µM
same,IC50,TE-11,> 4000 nM
same,IC50,A498,> 4 µM
same,IC50,KY821,> 4 µM
same,IC50,A4-Fuk,469 nM
same,IC50,LC-2-ad,> 4000 nM
same,IC50,J-RT3-T3-5,744 nM
same,IC50,NB10,> 4 µM
same,IC50,LAMA-84,> 4000 nM
same,IC50,MC116,> 4 µM
same,IC50,TE-1,> 4 µM
same,IC50,LNCaP-Clone-FGC,610 nM
same,IC50,RXF 393,2.6 µM
same,IC50,NCI-H1155,> 4000 nM
same,IC50,JVM-2,> 4 µM
same,IC50,EKVX,> 4 µM
same,IC50,DBTRG-05MG,> 4 µM
same,IC50,CAS-1,> 4 µM
same,IC50,HT,632 nM
same,IC50,KURAMOCHI,> 4 µM
same,IC50,C-33-A,> 4 µM
same,IC50,DU-4475,> 4000 nM
same,IC50,ES3,2500 nM
same,IC50,A253 cell line,> 4 µM
same,IC50,TGBC24TKB,> 4 µM

# — ChEMBL document CHEMBL1201861, “Genomics of Drug Sensitity in Cancer screening data, Wellcome Trust Sanger Institute”
